The source of these data is ChEMBL document CHEMBL1139641 (Bioorg Med Chem Lett, 2005).

Molecules are shown by their SMILES.

For assay [1], the target named is GABA B receptor (Rattus norvegicus) (UniProt Q9Z0U4+O88871). Kind of assay: Percent displacement of [3H]GABA (1 mM) from Gamma-aminobutyric acid B receptor of rat cerebellum. Format: tissue-based. A general note: Displacement assays read how much labelled ligand stays bound in the presence of the test substance.
Assay [2] addresses Calcium/calmodulin-dependent protein kinase type II subunit alpha (Rattus norvegicus, UniProt P11275). Kind of assay: Displacement of [3H]NCS-382 (16 nM) from GHB receptor of rat cerebrocortical membranes. Format: cell membranes, Membrane.
Assay [3] addresses GABA-A receptor; anion channel (Rattus norvegicus) (UniProt O09028+P15431+P18506+P18508+P19969+P20236+P23574+P23576+P28471+P28473+P30191+P62813+P63079+P63138+Q91ZM7+Q9ES14). Kind of assay: Percent displacement of [3H]GABA (1 mM) from Gamma-aminobutyric acid A receptor of rat cerebral cortex. Format: tissue-based.

Chain of Calcium/calmodulin-dependent protein kinase type II subunit alpha (P11275 whole entry): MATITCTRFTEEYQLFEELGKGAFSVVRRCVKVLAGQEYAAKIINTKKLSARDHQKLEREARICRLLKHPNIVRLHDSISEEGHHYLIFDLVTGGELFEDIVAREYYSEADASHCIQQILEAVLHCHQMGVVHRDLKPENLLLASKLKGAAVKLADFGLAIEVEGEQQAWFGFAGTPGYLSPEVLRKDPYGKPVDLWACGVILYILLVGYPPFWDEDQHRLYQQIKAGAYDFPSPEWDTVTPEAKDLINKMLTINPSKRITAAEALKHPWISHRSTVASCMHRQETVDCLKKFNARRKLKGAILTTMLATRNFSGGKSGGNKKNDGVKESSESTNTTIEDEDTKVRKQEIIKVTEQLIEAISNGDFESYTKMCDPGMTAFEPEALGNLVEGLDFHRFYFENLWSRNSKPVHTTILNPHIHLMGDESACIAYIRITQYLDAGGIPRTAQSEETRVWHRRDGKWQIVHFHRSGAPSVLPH

For the compound `O=C(O)Cc1cccc(Oc2ccccc2)c1`, the inhibition in assay [1] is -5.5%; in assay [3] it was 2.7%. In addition, in assay [2], the IC50 is 16.3 µM.

Turning to `O=C(O)CCCOc1ccccc1`, the values for the inhibition in assay [1] and in assay [3] were 6.5% and 6.3%, respectively. In assay [2], the IC50 was 210 µM.

`O=C(O)Cc1cccc(OCc2ccccc2)c1`: the inhibition in assay [1] was -4.7%; in assay [3] it was 11%. In assay [2], the IC50 was found to be 46 µM.

With `O=C(O)Cc1cccc(O)c1` [3-Hydroxyphenylacetate], the inhibition in assay [1] is 14%; in assay [3] it was 44.2%. In addition, in assay [2], the IC50 was 12 µM.

Turning to `O=C(O)Cc1cccc(OCCc2ccccc2)c1`, the figures for the inhibition in assay [1] and in assay [3] were -1.2% and 15.1%, respectively. In addition, the IC50 in assay [2] came to 8.3 µM.

With `O=C(O)CCCO`, the inhibition in assay [1] came to 41.1%; in assay [3] it was 35.5%.

`O=C(O)Cc1cccc(OCCCc2ccccc2)c1`: the inhibition in assay [1] was 6%; in assay [3], 17.4%. The IC50 in assay [2] is 4.5 µM.

Broadly, the inhibition is the relative decrease from the control value, in per cent. Broadly, the IC50 is the concentration that inhibits the measured activity by half.
